Data from US20120202287A1, “Stem Cell Culture Methods” (priority 2009, published 2012).

Each compound was assayed on SA121 hESCs (assay: General (monolayer) differentiation on matrigel in defined media, qRT-PCR of stem cell and differentiation markers after 14 days). Details: 10 uM, 14 days, qRT-PCR; NANOG at least 50% of EHNA level and PAX6 50% or less of untreated control.
Type: cell-based, human
Design: key to NO EHNA EFFECT: X: NO EHNA EFFECT; key to Full EHNA effect: those which maintained at least 50% of the level of NANOG-expression in comparison to EHNA and those that inhibited the expression of PAX6 to 50% or less than the value untreated controls were considered to have an EHNA-like effect
Description: In order to ascertain the efficacy of the compounds of the present invention, each compound was tested to determine whether it can maintain the stem cell marker NANOG and/or block the differentiation marker PAX6 in the face of differentiating conditions in a manner similar to EHNA. Cells enzymatically passaged onto matrigel-coated dishes and grown for 2 weeks in defined media with or without (control) compound addition were analysed by qRT-PCR to determine the level of NANOG and PAX6 expression.
For general differentiation experiments cells were passaged with trypsin onto matrigel coated twelve-well dishes in the fully supportive media (see above). The media was then changed to defined media 24 h later and any experimental component was first added at this point. The media and experimental supplement were changed daily.
Cells were routinely harvested for qRT-PCR analysis 14 days after the first addition of the experimental compound.
Total RNA was extracted using QIAGEN RNeasy kits (Qiagen Inc, Valencia, Calif., http://www.qiagen.com) and DNaseI treatment was performed using Turbo DNA-Free (Ambion). The absence of genomic DNA was confirmed by quantitative PCR (qPCR) (see below) using glyceraldehyde-3-phosphate dehydrogenase (GAPDH) Taqman primers and probe (MWG). cDNA was synthesized with 2 μg total RNA in 20 μl using Superscript II according to manufacturers' instructions ((Carlsbad, Calif., http://www.Invitrogen.com)). For qPCR, cDNAs were diluted 1 in 60 and 5 μl used per sample in a 15 μl total reaction volume. Platinum pPCR supermix UDG with Rox (Carlsbad, Calif., http://www.Invitrogen.com) was used according to the manufacturer's instructions using an Applied Biosystems 7300 real time PCR system (Applied Biosystems, Warrington, UK, http://europe.appliedbiosystems.com). Each reaction contained 0.6 μM of each primer and Taqman probe (MWG). Biological and technical replicates were each performed in triplicate for each sample, standardised to the GAPDH housekeeping gene and relative expression values were calculated using the 7300 system SDS software (Applied Biosystems, Warrington, UK, http://europe.appliedbiosystems.com).
Cells were enzymatically passaged onto matrigel-coated dishes and grown for 2 weeks in defined media. After 14 days, qRT-PCR was utilised to analyse the expression of a variety of markers of pluripotency and differentiation. In the graphs in FIG. 9 the value 1 was set to the expression level of the gene in undifferentiated SA121 hESCs.
Cells were enzymatically passaged onto matrigel-coated dishes and grown for 2 weeks in defined media (1× confluent T25 tissue culture flask was passaged to 2×12 well dishes) with or without (control) compound addition. All compounds were added at 10 uM and each was performed in triplicate. Media and compounds were changed every 48 hours. After 14 days RNA was isolated and qRT-PCR was utilised to analyse the expression of NANOG and PAX6. The results are illustrated in FIGS. 13 to 17.
In the graphs in FIGS. 13, 14 15, 16 and 17 the value 1 was set relative to the expression level of the gene in the control (no compound) samples. […] This experiment allowed the effect of the EHNA-related compounds to be measured directly in comparison to EHNA. […] Those which had on effect, to these levels, on either PAX6 or NANOG were considered to have a partial-EHNA effect.

SMILES | Full EHNA effect
CCCCCCC(CC)n1cnc2c(N)ncnc21 (racemic) [HWC57, (rac)-9-(Nonan-3-yl)-9H-purin-6-amine] | X
CCCCCC(CC)n1cnc2c(N)ncnc21 (racemic) [HWC62, (rac)-9-(octan-3-yl)-9H-purin-6-amine] | X
CCCCCCCCCCn1cc2c(N)ncnc2n1.Cl [HWC6, 2-decyl-2H-pyrazolo[3,4-d]pyrimidin-4-amine hydrochloride] | X
CCCCCCC(C(C)O)n1cnc2c(SC)ncnc21 (stereo not drawn) [HWC25, erythro-3-[6-(methylthio)-9H-purin-9-yl]nonan-2-ol] | X
CCCCCCCCCn1cc2c(N)ncnc2n1.Cl [HWC30, 2-nonyl-2H-pyrazolo[3,4-d]pyrimidin-4-amine hydrochloride] | X
CCCCCCCCCn1ncc2c(N)ncnc21.Cl [HWC31, 1-nonyl-1H-pyrazolo[3,4-d]pyrimidin-4-amine hydrochloride] | X
CCCCCCCCCCCn1ncc2c(N)ncnc21.Cl [HWC33, 1-undecyl-1H-pyrazolo[3,4-d]pyrimidin-4-amine hydrochloride] | X
CCCCCCCCn1ncc2c(N)ncnc21.Cl [HWC40, 1-octyl-1H-pyrazolo[3,4-d]pyrimidin-4-amine hydrochloride] | X
CCCCCCCCn1cc2c(N)ncnc2n1.Cl [HWC41, 2-octyl-2H-pyrazolo[3,4-d]pyrimidin-4-amine hydrochloride] | X

Same assay, conditions: 10 uM, 14 days, qRT-PCR; neither NANOG nor PAX6 criterion met

SMILES | NO EHNA EFFECT
CCCCCCC(C(C)O)n1nnc2cnccc21 (racemic) [HWC54, (rac)-erythro-3-(1H-[1,2,3]triazolo[4,5-c]pyridin-1-yl)nonan-2-ol] | X
CCCCCC[C@@H]([C@@H](C)O)n1cnc(C(=O)NC)c1 [HWC7, erythro-1-(2-hydroxynonan-3-yl)-N-methyl-1H-imidazole-4-carboxamide] | X
CCCCCCC(C(C)O)n1cnc2c(O)ncnc21.Cl (stereo not drawn) [HWC14, erythro-9-(2-hydroxynonan-3-yl)-9H-purin-6-ol hydrochloride] | X
CCCCCC[C@@H]([C@@H](C)O)n1cnc2c(OC)ncnc21.Cl [HWC15, erythro-3-(6-methoxy-9H-purin-9-yl)nonan-2-ol hydrochloride] | X
CCCCCC[C@@H]([C@@H](C)O)n1cnc(C(N)=O)c1 [HWC36, erythro-1-(2-hydroxynonan-3-yl)-1H-imidazole-4-carboxamide] | X

Same assay, conditions: 10 uM, 14 days, qRT-PCR; only PAX6 50% or less of untreated control

SMILES | PARTIAL EHNA EFFECT (PAX6)
CCCCCCCC(CC)n1cnc2c(N)ncnc21 (racemic) [HWC63, (rac)-9-(decan-3-yl)-9H-purin-6-amine] | X (Those which had on effect, to these levels, on either PAX6 or NANOG were considered to have a partial-EHNA effect)
CCCCCC[C@@H]([C@@H](C)O)n1cnc2cnccc21 [HWC8, erythro-3-(1H-imidazo[4,5-c]pyridin-1-yl)nonan-2-ol] | X (Those which had on effect, to these levels, on either PAX6 or NANOG were considered to have a partial-EHNA effect)
CCCCCC[C@@H]([C@@H](C)O)n1cnc2c(N)nccc21.Cl [HWC9, erythro-3-(4-Amino-1H-imidazo[4,5-c]pyridin-1-yl)nonan-2-ol hydrochloride] | X (Those which had on effect, to these levels, on either PAX6 or NANOG were considered to have a partial-EHNA effect)
CCCCCCC(C(C)O)n1cnc2c(Cl)ncnc21 (stereo not drawn) [HWC10, erythro-3-(6-Chloro-9H-purin-9-yl)nonan-2-ol] | X (Those which had on effect, to these levels, on either PAX6 or NANOG were considered to have a partial-EHNA effect)
CCCCCC[C@@H]([C@@H](C)O)n1cnc2cncnc21 [HWC12, erythro-3-(9H-purin-9-yl)nonan-2-ol] | X (Those which had on effect, to these levels, on either PAX6 or NANOG were considered to have a partial-EHNA effect)
CCCCCCC(C(C)O)n1cnc2c(S)ncnc21.Cl (stereo not drawn) [HWC13, erythro-3-(6-mercapto-9H-purin-9-yl)nonan-2-ol hydrochloride] | X (Those which had on effect, to these levels, on either PAX6 or NANOG were considered to have a partial-EHNA effect)
CCCCCCC(C(C)O)n1cnc2c(NC)ncnc21 (stereo not drawn) [HWC16, erythro-3-[6-(methylamino)-9H-purin-9-yl]nonan-2-ol] | X (Those which had on effect, to these levels, on either PAX6 or NANOG were considered to have a partial-EHNA effect)
CCCCCC[C@@H]([C@@H](C)O)n1cnc2c(N(C)C)ncnc21.Cl [HWC17, erythro-3-[6-(dimethylamino)-9H-purin-9-yl]nonan-2-ol hydrochloride] | X (Those which had on effect, to these levels, on either PAX6 or NANOG were considered to have a partial-EHNA effect)
CCCCCCC(C(C)O)n1c(C)nc2c(N)ncnc21.Cl (stereo not drawn) [HWC24, erythro-3-(6-Amino-8-methyl-9H-purin-9-yl)nonan-2-ol hydrochloride] | X (Those which had on effect, to these levels, on either PAX6 or NANOG were considered to have a partial-EHNA effect)
CCCCCC[C@@H]([C@@H](C)O)n1nnc2c(N)ncnc21 [HWC26, erythro-3-(7-amino-3H-[1,2,3]triazolo[4,5-d]pyrimidin-3-yl)nonan-2-ol] | X (Those which had on effect, to these levels, on either PAX6 or NANOG were considered to have a partial-EHNA effect)
CCCCCCC(C(C)O)n1cnc2c(NN)ncnc21 (stereo not drawn) [HWC27, erythro-3-(6-hydrazinyl-9H-purin-9-yl)nonan-2-ol] | X (Those which had on effect, to these levels, on either PAX6 or NANOG were considered to have a partial-EHNA effect)
Nc1ncnc2c1cnn2CCN1CCOCC1 [HWC28, 1-(2-morpholinoethyl)-1H-pyrazolo[3,4-d]pyrimidin-4-amine] | X (Those which had on effect, to these levels, on either PAX6 or NANOG were considered to have a partial-EHNA effect)
Nc1ncnc2nn(CCN3CCOCC3)cc12 [HWC29, 2-(2-morpholinoethyl)-2H-pyrazolo[3,4-d]pyrimidin-4-amine] | X (Those which had on effect, to these levels, on either PAX6 or NANOG were considered to have a partial-EHNA effect)
COCCOCCn1ncc2c(N)ncnc21 [HWC34, 1-[2-(2-methoxyethoxy)ethyl]-1H-pyrazolo[3,4-d]pyrimidin-4-amine] | X (Those which had on effect, to these levels, on either PAX6 or NANOG were considered to have a partial-EHNA effect)
COCCOCCn1cc2c(N)ncnc2n1 [HWC35, 2-[2-(2-methoxyethoxy)ethyl]-2H-pyrazolo[3,4-d]pyrimidin-4-amine] | X (Those which had on effect, to these levels, on either PAX6 or NANOG were considered to have a partial-EHNA effect)
C[C@H]([C@@H](O)CCc1ccccc1)n1cnc2c(N)ncnc21.Cl [HWC42, (3S,4R)-4-(6-amino-9H-purin-9-yl)-1-phenylpentan-3-ol hydrochloride] | X (Those which had on effect, to these levels, on either PAX6 or NANOG were considered to have a partial-EHNA effect)

Same assay, conditions: FIG. 10

SMILES | prevention of differentiation of hESCs
CCCCCCCCCCn1cc2c(N)ncnc2n1.Cl [HWC6, 2-decyl-2H-pyrazolo[3,4-d]pyrimidin-4-amine hydrochloride] | can prevent differentiation of hESCs

Same assay, conditions: qRT-PCR, 14 days

SMILES | PAX6 expression in differentiating conditions
COc1ccc(Cc2nn3c([C@@H](CCCc4ccccc4)[C@@H](C)O)nc(C)c3c(=O)[nH]2)cc1OC [BAY-60-7550, reference compound] | nor did they inhibit PAX6 induction
CCCCCCCCCCn1cc2c(N)ncnc2n1.Cl [HWC6, 2-decyl-2H-pyrazolo[3,4-d]pyrimidin-4-amine hydrochloride] | inhibiting PAX6 expression

Same assay, conditions: qRT-PCR, 14 days, FIG. 9a

SMILES | stem cell marker expression (NANOG, ZFP42, POU5F1) in differentiating conditions
COc1ccc(Cc2nn3c([C@@H](CCCc4ccccc4)[C@@H](C)O)nc(C)c3c(=O)[nH]2)cc1OC [BAY-60-7550, reference compound] | Neither BAY nor IBMX maintained stem cell marker expression

Same assay, conditions: qRT-PCR, 14 days, relative to untreated control

SMILES | NANOG expression in differentiating conditions
CCCCCCCCCCn1cc2c(N)ncnc2n1.Cl [HWC6, 2-decyl-2H-pyrazolo[3,4-d]pyrimidin-4-amine hydrochloride] | capable of maintaining NANOG
